Data published in patent US8273768B2, “Iso CA-4 and analogues thereof as potent cytotoxic agents inhibiting tubuline polymerization” (Centre National de la Recherche Scientifique (CNRS), priority 2007, dated 2012).

Assays:
B16F10 = experiment: Study of cytotoxicity (CellTiter-Blue, 72 hours); format: cell-based, human; conditions: Mus musculus, B16-F10; 72 hours of incubation; read-out: IC50 for different cell lines: B16F10
Procedure: The biological activity of the compounds of the invention was studied in vitro on 7 human cancer cell lines with different tissue origins (HCT116: colorectal carcinoma; K562: chronic myeloid leukemia; B16-F10: melanoma; U87: glioblastoma; A549: lung cancer and MDA-MB 231 and MDA-MB 435: breast cancer). The cells selected for the study were incubated at 37° C. in the presence of one of the compounds added into the culture medium at different concentrations. The whole of the conducted experiments allowed determination of the toxicity level of the tested compound, its effect on the course of the cell cycle as well as its capacity of inducing cell death by apoptosis.
The cancer cell lines originate from the American Type Culture Collection (Rockville, Md., USA) and were grown according to the recommendations of the supplier.
The cells A549, U87, MDA-MB231, MDA-MB435 and B16F10 were grown in a culture medium “Dulbecco minimal essential medium” (DMEM) containing 4.5 g/L of glucose and supplemented with 10% fetal calf serum and 1% glutamine. […] Cell viability was evaluated by using the reagent “CellTiter-Blue™” (Promega, Wis., USA) while observing the instructions of the manufacturer. […] After 2 hours of incubation, the emitted fluorescence was measured at 590 nm after excitation at 560 nm by means of a fluorescence reader of the Victor type (Perkin-Elmer, USA). […]

HCT116 cells = experiment: Study of apoptosis (caspase-3/7 activity); format: cell-based, human; conditions: HCT116, 24 hours
Procedure: (§1) In order to specify whether the compound (I-1) causes cell death by apoptosis, the intracellular enzymatic activity of caspases 3 and 7 was evaluated in cultures of K562, HCT116 and MDA-MB 231 cells exposed for 24 hours to the action of the compound (I-1).
(§2) Apoptosis is measured by using the kit “Apo-one homogeneous caspase-3/7 assay” (Promega Co., WI, USA) by following the recommendations of the manufacturer. Briefly, the cells are sown in 96-well culture plates with 50,000 cells per well in 100 μL of culture medium. After 24 hours of incubation, the medium is replaced with 100 μL of culture medium containing different concentrations of the compound […] or 0.1% DMSO (negative control). After 24 hours of treatment, 100 μL of reagent containing the substrate of the caspase and the buffer of the reaction are added into each well. After 1 hour of incubation, the fluorescence emitted by the cell is measured at 527 nm with a microplate reader of the Victor type (Perkin-Elmer, USA).

MDA-MB 231 cells = experiment: Study of apoptosis (caspase-3/7 activity); format: cell-based, human; conditions: MDA-MB 231, 24 hours
Procedure: as §1, §2

K562 cells = experiment: Study of apoptosis (caspase-3/7 activity); format: cell-based, human; conditions: K562, 24 hours
Procedure: as §1, §2

[1] = system: human endothelial cells (EAhy926); experiment: Formation of vascular tubes on Matrigel; format: cell-based; conditions: EAhy926, treatment of 3 hours, 10 nM
Procedure: In order to know whether the compound (I-1) perturbs the spatial organization of endothelial cells in structures similar to vascular capillaries, human endothelial cells (EAhy926) were treated immediately after cultivation on Matrigel® or after 24 hours of cultivation, in order to allow them to form vascular tubes.
In order to evaluate the antivascular activity of the compound (I-1), the EAhy926 cells were cultivated in 96-well culture plates covered beforehand with an extract of extracellular matrix (Matrigel™, BD Biosciences, Le Pont-de-Claix, France) in which they spontaneously form capillary tubes.
First of all, we measured the capacity of the compound (I-1) of inhibiting the formation of the capillary network. Matrigel™ is deposited in 96-well culture plates in an amount of 70 μL/well and left to incubate at 37° C. for 45 minutes in order to allow its polymerization. 15,000 cells suspended in 150 μL of culture medium are sown per well in each of the wells containing Matrigel™ in the absence or in the presence of different concentrations of the compound (I-1), with 3 wells per concentration. After 1 hour, 3 hours and 6 hours of incubation at 37° C., the cells are observed and photographed by means of an optical microscope of the TE2000 type (Nikon, France), equipped with a camera. […]

[2] = system: human colon tumors LS174T xenografted in Nude mice; experiment: Antivascular activity in vivo (MRI, Dotarem entry into tumors); conditions: LS174T xenograft
Procedure: The antivascular effect of the molecule (I-1) was tested on mice bearing human tumors by comparison with the positive control DMXAA, according to the procedure described by Beauregard et al. (NMR Biomed., 2002, 15:99-105).
Thus, CD-1 Nude female mice were xenografted by subcutaneous injection of human colon tumoral cells (LS174T). The mice bearing tumors were then treated with 0.9% NaCl (carrier, 10 mL/kg), DMXAA (27.5 mg/kg) via an intraperitoneal route (IP) or the molecule (I-1) (45 mg/kg) via an intravenous route (IV). Three hours after administration, the mice were treated with the Dotarem® contrast agent intravenously (IV). The penetration of the contrast agent into the tumors was followed in real time by magnetic resonance imaging (MRI) and is expressed by an enhancement of the intensity of the signal in the tumors. Densitometric analysis of the acquired images allows determination of the maximum enhancement (Rmax) as well as the slope P0 corresponding to the entry rate of Dotarem® into the tumors.

[3] = 3 hours after administration, DMXAA 27.5 mg/kg IP, (I-1) 45 mg/kg IV

C=C(c1ccc(OC)c(O)c1)c1cc(OC)c(OC)c(OC)c1 [(I-1)]
IC50 (B16F10): 2 nM | Induction of apoptosis (caspases 3 and 7) (HCT116 cells): strong induction of apoptosis | Induction of apoptosis (caspases 3 and 7) (MDA-MB 231 cells): strong induction of apoptosis | Induction of apoptosis (caspases 3 and 7) (K562 cells): strong induction of apoptosis | Number of vascular tubes on Matrigel [1]: very significant decrease in the number of vascular tubes | Antivascular effect in vivo ([2]; 45 mg/kg IV): has an antivascular effect | Average of P0 [2, 3]: 1.53±0.82 arbitrary unit | Average of Rmax [2, 3]: 67.56±33.10 % of the NaCl control
